# Source: BindingDB's records for patent US9796704 (SYMPHONY EVOLUTION, INC., 2017)
# What was measured:
# [1] = molecular target: Vascular endothelial growth factor receptor 2 (Homo sapiens, UniProt P35968); assay: AlphaScreen Assay
# [2] = molecular target: Ephrin type-A receptor 2 (Homo sapiens, UniProt P29317); assay: AlphaScreen Assay
# Chain of Ephrin type-A receptor 2 (P29317 whole entry): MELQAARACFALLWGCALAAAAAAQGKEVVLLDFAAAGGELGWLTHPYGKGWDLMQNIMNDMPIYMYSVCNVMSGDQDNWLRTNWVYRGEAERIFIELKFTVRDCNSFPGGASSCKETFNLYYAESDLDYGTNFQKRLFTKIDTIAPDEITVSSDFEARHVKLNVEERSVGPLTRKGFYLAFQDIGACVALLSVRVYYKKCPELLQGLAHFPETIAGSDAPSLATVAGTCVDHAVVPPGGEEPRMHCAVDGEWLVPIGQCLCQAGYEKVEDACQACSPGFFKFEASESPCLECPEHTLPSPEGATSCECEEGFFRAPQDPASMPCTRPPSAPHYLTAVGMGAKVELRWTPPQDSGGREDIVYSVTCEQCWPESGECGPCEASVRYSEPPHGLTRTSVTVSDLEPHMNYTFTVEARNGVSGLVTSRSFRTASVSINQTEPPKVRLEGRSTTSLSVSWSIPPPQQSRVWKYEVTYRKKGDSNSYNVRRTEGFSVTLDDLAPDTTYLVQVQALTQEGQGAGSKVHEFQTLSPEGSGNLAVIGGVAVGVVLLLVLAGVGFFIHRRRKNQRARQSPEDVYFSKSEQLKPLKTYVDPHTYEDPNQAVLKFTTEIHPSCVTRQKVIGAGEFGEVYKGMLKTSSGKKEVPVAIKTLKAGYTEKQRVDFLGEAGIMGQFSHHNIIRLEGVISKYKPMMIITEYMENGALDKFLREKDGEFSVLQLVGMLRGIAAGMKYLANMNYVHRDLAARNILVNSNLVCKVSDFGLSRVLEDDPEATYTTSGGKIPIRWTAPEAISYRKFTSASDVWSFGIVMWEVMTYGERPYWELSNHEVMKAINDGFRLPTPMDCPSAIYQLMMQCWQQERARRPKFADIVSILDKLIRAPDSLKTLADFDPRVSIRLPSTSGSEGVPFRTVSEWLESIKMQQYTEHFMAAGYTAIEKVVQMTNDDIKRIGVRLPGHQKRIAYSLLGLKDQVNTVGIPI
# Chain of Vascular endothelial growth factor receptor 2 (P35968 whole entry): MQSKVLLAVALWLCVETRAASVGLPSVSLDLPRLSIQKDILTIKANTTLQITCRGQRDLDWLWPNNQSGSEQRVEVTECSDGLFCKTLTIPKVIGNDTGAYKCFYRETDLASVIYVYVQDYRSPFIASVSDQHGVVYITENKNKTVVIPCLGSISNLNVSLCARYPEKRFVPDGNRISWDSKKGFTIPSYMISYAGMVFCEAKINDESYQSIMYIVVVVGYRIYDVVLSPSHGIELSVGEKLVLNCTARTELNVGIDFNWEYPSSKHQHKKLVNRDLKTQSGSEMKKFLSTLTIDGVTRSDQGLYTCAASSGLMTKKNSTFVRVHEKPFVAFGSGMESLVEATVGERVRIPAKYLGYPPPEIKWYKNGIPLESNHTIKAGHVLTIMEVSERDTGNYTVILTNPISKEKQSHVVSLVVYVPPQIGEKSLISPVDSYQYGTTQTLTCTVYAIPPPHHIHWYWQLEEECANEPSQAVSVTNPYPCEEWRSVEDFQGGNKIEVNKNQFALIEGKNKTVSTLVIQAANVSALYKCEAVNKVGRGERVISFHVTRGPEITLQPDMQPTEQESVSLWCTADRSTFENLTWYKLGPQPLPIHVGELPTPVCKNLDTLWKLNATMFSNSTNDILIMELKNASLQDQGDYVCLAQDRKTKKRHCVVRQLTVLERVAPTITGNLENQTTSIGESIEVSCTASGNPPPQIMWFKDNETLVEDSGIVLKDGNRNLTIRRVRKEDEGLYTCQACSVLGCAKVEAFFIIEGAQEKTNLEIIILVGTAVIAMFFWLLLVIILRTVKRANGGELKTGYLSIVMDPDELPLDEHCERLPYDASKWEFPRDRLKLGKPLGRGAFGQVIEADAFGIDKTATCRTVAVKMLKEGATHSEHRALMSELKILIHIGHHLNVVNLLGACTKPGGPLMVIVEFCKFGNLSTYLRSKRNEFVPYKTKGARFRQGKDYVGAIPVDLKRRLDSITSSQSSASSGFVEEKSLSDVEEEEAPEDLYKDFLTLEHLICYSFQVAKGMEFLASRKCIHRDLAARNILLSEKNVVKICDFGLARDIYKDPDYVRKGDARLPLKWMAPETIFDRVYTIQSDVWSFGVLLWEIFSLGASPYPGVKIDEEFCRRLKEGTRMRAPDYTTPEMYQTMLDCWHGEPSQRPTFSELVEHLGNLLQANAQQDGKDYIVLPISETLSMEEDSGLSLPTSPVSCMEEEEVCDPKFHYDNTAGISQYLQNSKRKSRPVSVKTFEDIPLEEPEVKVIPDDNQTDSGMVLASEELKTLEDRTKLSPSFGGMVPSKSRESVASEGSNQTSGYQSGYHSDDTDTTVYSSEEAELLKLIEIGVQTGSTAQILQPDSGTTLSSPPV
SMILES,IC50 [1],IC50 [2]
"COc1cc2c(Nc3cc(Cl)c(Br)cc3F)ncnc2cc1OC[C@H]1CN2CCOCC2CO1 (some centres not stated) [US9796704, Entry 20]",< 50 nM,
"COc1cc2c(Nc3ccc(Cl)c(Cl)c3)ncnc2cc1OC[C@H]1CN2CCC[C@@H]2CO1 [US9796704, Entry 31]",,< 50 nM
"COc1cc2c(Nc3ccc(Br)c(Cl)c3Cl)ncnc2cc1OC[C@@H]1CN2CCC[C@H]2CO1 [US9796704, Entry 39]",,in the range around 525 nM
"COc1cc2c(Nc3cc(Cl)c(Cl)cc3F)ncnc2cc1OC[C@@H]1CO[C@H]2[C@@H]1OC[C@@H]2OC [US9796704, Entry 48]",in the range around 10500 nM,
"COc1cc2c(Nc3cccc(Cl)c3F)ncnc2cc1O[C@H]1CO[C@H]2[C@@H]1OC[C@@H]2OC [US9796704, Entry 71]",in the range around 525 nM,
"CCO[C@H]1CO[C@H]2[C@@H]1OC[C@@H]2Oc1cc2ncnc(Nc3ccc(Br)c(Cl)c3)c2cc1OC [US9796704, Entry 74]",in the range around 525 nM,
"COc1cc2c(Nc3cccc(Br)c3C)ncnc2cc1O[C@H]1CO[C@H]2[C@@H]1OC[C@@H]2OC [US9796704, Entry 75]",in the range around 525 nM,
"COc1cc2c(Nc3cccc(Cl)c3C)ncnc2cc1O[C@H]1CO[C@H]2[C@@H]1OC[C@@H]2OC [US9796704, Entry 76]",in the range around 525 nM,
"COc1cc2c(Nc3ccc(Br)c(Cl)c3)ncnc2cc1O[C@H]1CO[C@@H]2CCO[C@H]12 [US9796704, Entry 77]",in the range around 525 nM,
"COc1cc2c(Nc3ccc(Br)c(Cl)c3)ncnc2cc1O[C@H]1CO[C@@H]2C3OC(C)(C)O[C@H]3O[C@H]12 (some centres not stated) [US9796704, Entry 80]",in the range around 525 nM,in the range around 525 nM
"COc1cc2c(Nc3ccc(F)c(F)c3F)ncnc2cc1O[C@@H]1CO[C@@H]2[C@H]1OC[C@H]2F [US9796704, Entry 84]",in the range around 525 nM,in the range around 525 nM
"COc1cc2c(Nc3cccc(F)c3F)ncnc2cc1O[C@@H]1CO[C@@H]2[C@H]1OC[C@H]2F [US9796704, Entry 92]",in the range around 525 nM,in the range around 525 nM
"COc1cc2c(Nc3ccc(Br)c(Cl)c3Cl)ncnc2cc1O[C@@H]1CO[C@@H]2[C@H]1OC[C@H]2F [US9796704, Entry 103]",in the range around 525 nM,in the range around 525 nM
"COc1cc2c(Nc3cc(F)c(Br)c(Cl)c3)ncnc2cc1O[C@@H]1CO[C@@H]2[C@H]1OC[C@H]2F [US9796704, Entry 104]",,in the range around 525 nM
"COc1cc2c(Nc3cc(Cl)c(Cl)cc3F)ncnc2cc1O[C@@H]1CO[C@@H]2[C@H]1OC[C@H]2F [US9796704, Entry 105]",in the range around 525 nM,in the range around 525 nM
"COc1cc2c(Nc3cccc(Cl)c3)ncnc2cc1O[C@@H]1CO[C@@H]2[C@H]1OC[C@H]2F [US9796704, Entry 114]",in the range around 10500 nM,in the range around 525 nM
"COc1cc2c(Nc3ccc(F)cc3)ncnc2cc1O[C@@H]1CO[C@@H]2[C@H]1OC[C@H]2F [US9796704, Entry 115]",in the range around 10500 nM,
"COc1cc2c(Nc3cc(Cl)ccc3Cl)ncnc2cc1O[C@@H]1CO[C@@H]2[C@H]1OC[C@H]2F [US9796704, Entry 118]",in the range around 525 nM,
"COc1cc2c(Nc3cccc(Br)c3)ncnc2cc1O[C@@H]1CO[C@@H]2[C@H]1OC[C@H]2F [US9796704, Entry 129]",in the range around 525 nM,in the range around 525 nM
"COc1cc(OC)c(Nc2ncnc3cc(O[C@@H]4CO[C@@H]5[C@H]4OC[C@H]5F)c(OC)cc23)cc1Cl [US9796704, Entry 135]",in the range around 525 nM,in the range around 525 nM

SMILES,IC50 [1],IC50 [2]
"COc1cc2c(Nc3ccc(F)c(Cl)c3F)ncnc2cc1O[C@@H]1CO[C@@H]2[C@H]1OC[C@H]2F [US9796704, Entry 137]",in the range around 525 nM,in the range around 525 nM
"COc1cc2c(Nc3ccc(Cl)c(Cl)c3)ncnc2cc1OCc1noc(CN(C)C)n1 [US9796704, Entry 138]",,in the range around 525 nM
"COc1cc2c(Nc3ccc(Cl)c(Cl)c3)ncnc2cc1OCc1nc(CN(C)C)no1 [US9796704, Entry 139]",in the range around 525 nM,in the range around 525 nM
"COc1cc2c(Nc3ccc(Cl)c(Cl)c3)ncnc2cc1OCc1nc(CN2CCN(C)CC2)no1 [US9796704, Entry 140]",,in the range around 525 nM
"COc1cc2c(Nc3ccc(Cl)c(Cl)c3)ncnc2cc1OCc1noc(C2CCNCC2)n1 [US9796704, Entry 141]",in the range around 525 nM,in the range around 525 nM
"COc1cc2c(Nc3ccc(Cl)c(Cl)c3)ncnc2cc1OCc1noc(C2CCN(C)CC2)n1 [US9796704, Entry 142]",in the range around 525 nM,in the range around 525 nM
"COc1cc2c(Nc3ccc(Cl)c(Cl)c3)ncnc2cc1OCc1nc(CN2CCOCC2)no1 [US9796704, Entry 143]",in the range around 525 nM,in the range around 525 nM
"COc1cc2c(Nc3ccc(Cl)c(Cl)c3)ncnc2cc1OCc1noc(C2CCCCN2)n1 (configuration not stated) [US9796704, Entry 145]",in the range around 525 nM,in the range around 10500 nM
"COc1cc2c(Nc3ccc(Cl)c(Cl)c3)ncnc2cc1OCC1CN(C)CCO1 (configuration not stated) [US9796704, Entry 151]",in the range around 525 nM,
"COc1cc2c(Nc3ccc(Cl)c(Cl)c3)ncnc2cc1OCC1CN(C)CCCO1 (configuration not stated) [US9796704, Entry 155]",,in the range around 525 nM
"COc1cc2c(Nc3ccc(Cl)c(Cl)c3)ncnc2cc1OCc1noc(C)c1-c1ccccc1 [US9796704, Entry 161]",,in the range around 525 nM
"COc1cc2c(Nc3ccc(Cl)c(Cl)c3)ncnc2cc1OCc1noc(-c2ccc(C(F)(F)F)cc2)n1 [US9796704, Entry 167]",in the range around 525 nM,
"COc1cc2c(Nc3ccc(Cl)c(Cl)c3)ncnc2cc1OCc1cscn1 [US9796704, Entry 170]",in the range around 525 nM,
"COc1cc2c(Nc3ccc(Cl)c(Cl)c3)ncnc2cc1OCC1CC1 [US9796704, Entry 182]",in the range around 525 nM,
"COc1cc2c(Nc3ccc(Cl)c(Cl)c3)ncnc2cc1OCC1CCCO1 (configuration not stated) [US9796704, Entry 183]",in the range around 525 nM,
"COc1cc2c(Nc3ccc(Cl)c(Cl)c3)ncnc2cc1OC1CCCC1 [US9796704, Entry 184]",in the range around 525 nM,
"COc1cc2c(Nc3ccc(Cl)c(Cl)c3)ncnc2cc1OCCC1CCCCC1 [US9796704, Entry 185]",in the range around 525 nM,
"COc1cc2c(Nc3ccc(Cl)c(Cl)c3)ncnc2cc1OCC1CCCCC1 [US9796704, Entry 186]",in the range around 525 nM,
"COc1cc2c(Nc3ccc(Cl)c(Cl)c3)ncnc2cc1OCC1CCC1 [US9796704, Entry 187]",in the range around 525 nM,
"COc1cc2c(Nc3ccc(Cl)c(Cl)c3)ncnc2cc1OCCC1OCCO1 [US9796704, Entry 188]",in the range around 525 nM,

SMILES,IC50 [1],IC50 [2]
"COc1cc2c(Nc3ccc(Cl)c(Cl)c3)ncnc2cc1OCCC1OCCCO1 [US9796704, Entry 189]",in the range around 525 nM,
"COc1cc2c(Nc3ccc(Cl)c(Cl)c3)ncnc2cc1OCCN1CCOCC1 [US9796704, Entry 190]",in the range around 525 nM,
"COc1cc2c(Nc3ccc(Cl)c(Cl)c3)ncnc2cc1OCCN1CCCC1 [US9796704, Entry 191]",in the range around 525 nM,
"COc1cc2c(Nc3ccc(Cl)c(Cl)c3)ncnc2cc1OCCN1CCCCC1 [US9796704, Entry 192]",in the range around 525 nM,
"COc1cc2c(Nc3ccc(Cl)c(Cl)c3)ncnc2cc1OCC(=O)N1CCOCC1 [US9796704, Entry 195]",in the range around 525 nM,
"COc1cc2c(Nc3ccc(Cl)c(Cl)c3)ncnc2cc1OCc1nc(-c2ccc(O)c(C(N)=O)c2)cs1 [US9796704, Entry 200]",in the range around 525 nM,
"COc1cc2c(Nc3ccc(Cl)c(Cl)c3)ncnc2cc1OCc1nc(-c2cccnc2)cs1 [US9796704, Entry 201]",in the range around 525 nM,
"COc1cc2c(Nc3ccc(Cl)c(Cl)c3)ncnc2cc1OCc1nc(-c2ccccn2)cs1 [US9796704, Entry 202]",in the range around 525 nM,
"COc1cc2c(Nc3ccc(Cl)c(Cl)c3)ncnc2cc1OCc1nc(N2CCOCC2)no1 [US9796704, Entry 205]",in the range around 525 nM,
"COc1cc2c(Nc3ccc(Cl)c(Cl)c3)ncnc2cc1OCc1nc(N(C)C)no1 [US9796704, Entry 206]",in the range around 525 nM,
"COc1cc2c(Nc3ccc(Cl)c(Cl)c3)ncnc2cc1OCc1nc(CN2CCN(C)CC2)cs1 [US9796704, Entry 207]",in the range around 525 nM,
"COc1cc2c(Nc3ccc(Cl)c(Cl)c3)ncnc2cc1OCc1nc2c(s1)CNCC2 [US9796704, Entry 208]",in the range around 525 nM,
"COc1cc2c(Nc3ccc(Cl)c(Cl)c3)ncnc2cc1OCc1nc(CN2CCOCC2)cs1 [US9796704, Entry 209]",in the range around 525 nM,
"CCN1CCOC(COc2cc3ncnc(Nc4ccc(Cl)c(Cl)c4)c3cc2OC)C1 (configuration not stated) [US9796704, Entry 212]",in the range around 10500 nM,
"COc1cc2c(Nc3ccc(Cl)c(Cl)c3)ncnc2cc1OCc1csc(C2CCNCC2)n1 [US9796704, Entry 213]",in the range around 525 nM,
"COc1cc2c(Nc3ccc(Cl)c(Cl)c3)ncnc2cc1OCc1csc(C2CCN(C)CC2)n1 [US9796704, Entry 214]",in the range around 525 nM,
"COc1cc2c(Nc3ccc(Cl)c(Cl)c3)ncnc2cc1OCc1nc(N2CCN(C(=O)OC(C)(C)C)CC2)no1 [US9796704, Entry 215]",in the range around 525 nM,
"CCN1CCCCC1c1nc(COc2cc3ncnc(Nc4ccc(Cl)c(Cl)c4)c3cc2OC)no1 (configuration not stated) [US9796704, Entry 219]",in the range around 525 nM,
